{
  "source": "patent US8937065B2",
  "about": "“Compositions and methods for modulating a kinase” (Clevexel Pharma, priority 2011, dated 2015)",
  "key": {"hERG": {"target": "hERG (Homo sapiens, UniProt Q12809)", "sequence (Q12809 whole entry)": "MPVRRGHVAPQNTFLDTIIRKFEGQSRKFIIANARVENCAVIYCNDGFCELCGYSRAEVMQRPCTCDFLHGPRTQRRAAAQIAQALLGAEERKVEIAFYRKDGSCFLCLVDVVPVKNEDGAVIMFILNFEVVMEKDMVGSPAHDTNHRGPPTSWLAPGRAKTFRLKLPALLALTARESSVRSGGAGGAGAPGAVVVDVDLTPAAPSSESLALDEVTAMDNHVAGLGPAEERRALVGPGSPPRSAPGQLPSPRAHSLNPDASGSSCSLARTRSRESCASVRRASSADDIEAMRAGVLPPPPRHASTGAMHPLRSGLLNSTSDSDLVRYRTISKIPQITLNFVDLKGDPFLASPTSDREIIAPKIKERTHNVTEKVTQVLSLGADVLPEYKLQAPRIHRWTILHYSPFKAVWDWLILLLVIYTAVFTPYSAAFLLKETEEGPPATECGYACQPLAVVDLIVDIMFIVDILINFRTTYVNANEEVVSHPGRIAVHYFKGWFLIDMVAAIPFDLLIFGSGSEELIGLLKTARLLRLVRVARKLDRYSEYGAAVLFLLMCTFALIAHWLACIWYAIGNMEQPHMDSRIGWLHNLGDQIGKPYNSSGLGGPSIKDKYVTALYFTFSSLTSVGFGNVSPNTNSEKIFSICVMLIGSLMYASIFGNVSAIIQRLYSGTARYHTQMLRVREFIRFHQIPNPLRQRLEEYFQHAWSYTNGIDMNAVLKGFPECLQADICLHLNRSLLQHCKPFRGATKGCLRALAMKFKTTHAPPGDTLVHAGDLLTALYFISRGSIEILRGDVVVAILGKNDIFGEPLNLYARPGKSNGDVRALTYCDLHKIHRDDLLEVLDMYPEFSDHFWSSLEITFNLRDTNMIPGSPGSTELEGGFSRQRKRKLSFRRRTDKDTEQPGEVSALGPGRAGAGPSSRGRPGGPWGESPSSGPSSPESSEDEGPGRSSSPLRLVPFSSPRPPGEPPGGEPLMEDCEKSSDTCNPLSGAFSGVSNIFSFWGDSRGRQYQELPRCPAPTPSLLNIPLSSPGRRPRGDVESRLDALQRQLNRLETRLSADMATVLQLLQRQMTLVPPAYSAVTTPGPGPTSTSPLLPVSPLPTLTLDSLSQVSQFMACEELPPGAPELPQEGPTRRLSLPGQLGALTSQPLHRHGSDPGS", "assay": "hERG IC50"}, "[1]": {"tested_on": "NF-kB pathway, Ramos cells", "assay": "NFkB/Ramos reporter assay", "conditions": "Homo sapiens, read-out: IC50 Cell-based selectivity: NF-kB pathway Ramos cells", "procedure": "Cells were plated on the day prior to the assay. Media required included:\n• 1. Cells were harvest from culture in Growth Medium and resuspend in Assay Medium at a density of 1.6×10^6 cells/ml. • 2. 32 μl per well of Assay medium were added to the cell-free control wells. 32 μl per well of a cell suspension were added to Unstimulated and Stimulated wells • 3. After plating, the plates were incubated in a 37° C./5% CO2 incubator for 16-20 hours. Preparation of DMSO Solution:\nA solution was prepared of 5% DMSO solution (10×) in Assay Media.\nA solution was prepared of 10×TNFα solution in Assay Medium. It is recommended to run a dose response curve to determine the EC80 for the Stimulation Solution.\n• 1. 4 μl of 10×DMSO solution was added to each well. • 2. 4 μl of Assay Medium was added to the Unstimulated wells and to the Cell-Free wells. • 3. 4 μl of the 10×TNFα was added to the Stimulated wells. • 4. The assay plate was incubated in a humidified 37° C./5% CO2 incubator for 5 hours. Substrate Loading and Incubation\nThis protocol is designed for loading cells with LiveBLAzer™-FRET B/G Substrate (CCF4-AM) or CCF2-AM. If alternative substrates are used it is recommended to follow the loading protocol provided with the substrate. […]\nAdded 934 μl Solution C to the combined solutions from above step and vortexed. • 3. […] The cells were counted and then spun cells down and resuspended in 4° C. […]"}, "Mouse PK (PO)": {"assay": "Mouse PK (PO)", "conditions": "in vivo"}, "JAK3": {"target": "T1, JAK3 (Homo sapiens, UniProt P52333)", "T1 construct": "purchased Invitrogen, Madison, Wis", "T1 sequence (P52333 1-1124)": "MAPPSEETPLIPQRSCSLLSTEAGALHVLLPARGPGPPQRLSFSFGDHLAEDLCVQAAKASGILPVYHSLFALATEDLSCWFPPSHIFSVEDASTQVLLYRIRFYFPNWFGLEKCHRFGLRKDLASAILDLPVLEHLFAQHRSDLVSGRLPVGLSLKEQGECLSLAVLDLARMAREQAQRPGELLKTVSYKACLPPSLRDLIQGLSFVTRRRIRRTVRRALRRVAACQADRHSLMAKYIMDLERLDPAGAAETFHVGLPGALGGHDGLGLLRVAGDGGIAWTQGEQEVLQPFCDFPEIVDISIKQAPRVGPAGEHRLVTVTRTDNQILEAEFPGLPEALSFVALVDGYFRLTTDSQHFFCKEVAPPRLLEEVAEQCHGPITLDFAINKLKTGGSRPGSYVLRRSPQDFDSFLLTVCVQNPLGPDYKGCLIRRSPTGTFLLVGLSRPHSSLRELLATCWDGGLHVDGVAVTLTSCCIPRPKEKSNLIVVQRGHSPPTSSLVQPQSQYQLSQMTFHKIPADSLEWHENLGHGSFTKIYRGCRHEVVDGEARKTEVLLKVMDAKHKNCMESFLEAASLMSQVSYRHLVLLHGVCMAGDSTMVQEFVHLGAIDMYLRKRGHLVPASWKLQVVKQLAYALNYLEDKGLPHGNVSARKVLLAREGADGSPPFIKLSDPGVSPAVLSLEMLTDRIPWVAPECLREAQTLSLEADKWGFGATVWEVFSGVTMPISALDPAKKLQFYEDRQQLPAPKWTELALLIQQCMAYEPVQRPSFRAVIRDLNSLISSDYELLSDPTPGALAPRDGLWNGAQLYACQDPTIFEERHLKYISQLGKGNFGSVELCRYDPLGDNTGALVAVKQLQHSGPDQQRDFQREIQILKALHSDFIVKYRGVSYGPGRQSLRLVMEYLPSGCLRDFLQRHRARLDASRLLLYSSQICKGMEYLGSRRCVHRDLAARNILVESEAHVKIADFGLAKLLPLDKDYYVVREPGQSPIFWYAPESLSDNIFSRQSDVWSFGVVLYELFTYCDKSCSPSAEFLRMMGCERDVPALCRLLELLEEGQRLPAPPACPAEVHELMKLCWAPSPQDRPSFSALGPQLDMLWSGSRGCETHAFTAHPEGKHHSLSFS", "assay": "JAK3 enzymatic activity assay (Z'-LYTE Biochemical Kinase Assay, 2 hr preincubation at 4° C.)", "conditions": "cell-free"}},
  "data": [
    {"molecule": "O=C(CN1CCOCC1)Nc1cccc(-c2nc(-c3c[nH]c(C(=O)N4CCCC4)c3)cs2)c1", "note": "[7A, 2-morpholino-N-(3-(4-(5-(pyrrolidine-1-carbonyl)-1H-pyrrol-3-yl)thiazol-2-yl)phenyl)acetamide]", "values": [
      {"measurement": "IC50", "setting": "hERG", "result": "> 10", "unit": "µM"},
      {"measurement": "IC50", "setting": "[1]", "result": "> 100", "unit": "µM"},
      {"measurement": "bioavailability", "setting": "Mouse PK (PO); read-out: Mouse PK (PO) % F", "result": 88, "unit": "%"},
      {"measurement": "half-life", "setting": "Mouse PK (PO); read-out: Mouse PK (PO) T½ (converted)", "result": 3.2, "unit": "h"},
      {"measurement": "Ki", "setting": "JAK3", "result": 0.795, "unit": "µM"}
    ]}
  ]
}
